Biological target: human lung tryptase
Test: β-Tryptase In-Vitro Enzyme Assay
Format: biochemical
Conditions: human lung tryptase 1 nM, substrate H-D-HHT-Ala-Arg-pNa 500 μM, pH 7.4, room temperature
Procedure: The β-tryptase assay was conducted with human lung tryptase (Cortex Biochem #CP3033) in an aqueous buffer (10 mM Tris, 10 mM Hepes, 150 mM NaCl, 0.1% PEG 8000, pH 7.4) using the chromogenic substrate H-D-HHT-Ala-Arg-pNa. […] Percent inhibition was calculated by comparing the initial reaction velocity of samples without inhibitor to those with inhibitor. The initial reaction velocities were analyzed using Microsoft Excel.

Compound	IC50 [nM]
NCc1ccc2c(c1)C1(CCN(C(=O)c3ccc4c(c3)OCO4)CC1)CO2 [Cpd 68, 1-benzodioxol-5-ylcarbonyl-5′-aminomethyl-spiro[piperidine-4,3′-(2H)-benzo[b]furan]]	190
Cc1nc(-c2ccccc2)sc1C(=O)N1CCC2(CC1)COc1ccc(CN)cc12 [Cpd 123, 1-(2-phenyl-4-methyl-thiazol-5-yl)carbonyl-5′-aminomethyl-spiro[piperidine-4,3′-(2H)-benzo[b]furan]]	690
NCc1ccc2c(c1)C1(CCN(C(=O)C#Cc3ccc(O)cc3)CC1)CO2 [Cpd 264, 1-(4-hydroxy-phenylethynyl)carbonyl-5′-aminomethyl-spiro[piperidine-4,3′-(2H)-benzo[b]furan]]	3200
CCOC(=O)CC(NNC)C(=O)N1CC2(CCN(C(=O)c3ccc(C#Cc4ccccc4)o3)CC2)c2cc(CN)ccc21 (stereo not shown) [Cpd 332, 1-(5-phenylethynyl-furan-2-yl)carbonyl-1′-[4-ethoxy-2-(methylamino)amino-1,4-dioxo-butyl]-5′-aminomethyl-spiro[piperidine-4,3′-(2H)-indole]]	28
NCc1ccc2c(c1)C1(CCN(C(=O)C(c3ccccc3)c3ccccc3)CC1)CO2 [Cpd 290, 1-(1-oxo-2,2-diphenyl-ethyl)-5′-aminomethyl-spiro[piperidine-4,3′-(2H)-benzo[b]furan]]	160
NCc1ccc2c(c1)C1(CCN(C(=O)c3cccc(NS(=O)(=O)c4ccccc4)c3)CC1)CO2 [Cpd 18, 1-(3-phenylsulfonylamino-phenyl)carbonyl-5′-aminomethyl-spiro[piperidine-4,3′-(2H)-benzo[b]furan]]	3300
COC(=O)c1ccc(S(=O)(=O)N2CC3(CCN(C(=O)c4ccc(C#Cc5ccccc5)o4)CC3)c3cc(CN)ccc32)o1 [Cpd 345, 1-(5-phenylethynyl-furan-2-yl)carbonyl-1′-(5-methoxycarbonyl-furan-2-yl)sulfonyl-5′-aminomethyl-spiro[piperidine-4,3′-(2H)-indole]]	13
Cc1ccccc1/C=C/C(=O)N1CCC2(CC1)COc1ccc(CN)cc12 [Cpd 191, (E)-1-(2-methyl-phenylethenyl)carbonyl-5′-aminomethyl-spiro[piperidine-4,3′-(2H)-benzo[b]furan]]	250
Cn1cc(C(=O)N2CCC3(CC2)COc2ccc(CN)cc23)c2ccccc21 [Cpd 237, 1-(1-methyl-indol-3-yl)carbonyl-5′-aminomethyl-spiro[piperidine-4,3′-(2H)-benzo[b]furan]]	270
NCc1ccc2c(c1)C1(CCN(C(=O)c3ccc(I)cc3)CC1)CO2 [Cpd 49, 1-(4-iodo-phenyl)carbonyl-5′-aminomethyl-spiro[piperidine-4,3′-(2H)-benzo[b]furan]]	130
NCc1ccc2c(c1)C1(CCN(C(=O)c3scc4c3CCCC4)CC1)CO2 [Cpd 203, 1-(5,6,7-trihydro-4H-benzo[c]thien-1-yl)carbonyl-5′-aminomethyl-spiro[piperidine-4,3′-(2H)-benzo[b]furan]]	280
Cc1nc2cc(C(=O)N3CCC4(CC3)COc3ccc(CN)cc34)ccc2n1-c1ccccc1 [Cpd 14, 1-(1-phenyl-2-methyl-benzoimidazol-5-yl)carbonyl-5′-aminomethyl-spiro[piperidine-4,3′-(2H)-benzo[b]furan]]	3700
Cc1cccc(C(=O)N2CCC3(CC2)COc2ccc(CN)cc23)c1 [Cpd 41, 1-(3-methyl-phenyl)carbonyl-5′-aminomethyl-spiro[piperidine-4,3′-(2H)-benzo[b]furan]]	470
COC(=O)c1ccc(C(=O)N2CCC3(CC2)COc2ccc(CN)cc23)s1 [Cpd 267, 1-(5-methoxycarbonyl-thien-2-yl)carbonyl-5′-aminomethyl-spiro[piperidine-4,3′-(2H)-benzo[b]furan]]	340
C[C@H]1CC[C@H](C(=O)N2CCC3(CC2)COc2ccc(CN)cc23)CC1 [Cpd 38, 1-(trans-4-methyl-cyclohexyl)carbonyl-5′-aminomethyl-spiro[piperidine-4,3′-(2H)-benzo[b]furan]]	650
NCc1ccc2c(c1)C1(CCN(C(=O)/C=C/c3ccc(Cl)cc3)CC1)CO2 [Cpd 165, (E)-1-(4-chloro-phenylethenyl)carbonyl-5′-aminomethyl-spiro[piperidine-4,3′-(2H)-benzo[b]furan]]	380
NCc1ccc2c(c1)C1(CCN(C(=O)c3ccc(C(F)(F)F)o3)CC1)CO2 [Cpd 22, 1-(5-trifluoromethyl-furan-2-yl)carbonyl-5′-aminomethyl-spiro[piperidine-4,3′-(2H)-benzo[b]furan]]	2100
NCc1ccc2c(c1)C1(CCN(C(=O)c3ccc(C#Cc4ccccc4)o3)CC1)CN2S(=O)(=O)O [Cpd 327, 1-(5-phenylethynyl-furan-2-yl)carbonyl-1′-hydroxysulfonyl-5′-aminomethyl-spiro[piperidine-4,3′-(2H)-indole]]	18
NCc1ccc2c(c1)C1(CCN(C(=O)/C=C/c3cccs3)CC1)CO2 [Cpd 254, (E)-1-(thien-2-ylethenyl)carbonyl-5′-aminomethyl-spiro[piperidine-4,3′-(2H)-benzo[b]furan]]	370

Compound	IC50 [nM]
NCc1ccc2c(c1)C1(CCN(C(=O)c3cccc(Sc4ncc(Cl)cn4)c3)CC1)CO2 [Cpd 21, 1-[3-(5-chloro-pyrimidin-2-yl)thiophenyl]carbonyl-5′-aminomethyl-spiro[piperidine-4,3′-(2H)-benzo[b]furan]]	510
NCc1ccc2c(c1)C1(CCN(C(=O)/C=C/c3ccc(F)cc3)CC1)CO2 [Cpd 182, (E)-1-(4-fluoro-phenylethenyl)carbonyl-5′-aminomethyl-spiro[piperidine-4,3′-(2H)-benzo[b]furan]]	740
NCc1ccc2c(c1)C1(CCN(C(=O)c3cncc(-c4ccccc4)c3)CC1)CO2 [Cpd 142, 1-(5-phenyl-pyridin-3-yl)carbonyl-5′-aminomethyl-spiro[piperidine-4,3′-(2H)-benzo[b]furan]]	650
COc1ccccc1/C=C\C(=O)N1CCC2(CC1)COc1ccc(CN)cc12 [Cpd 183, (Z)-1-(2-methoxy-phenylethenyl)carbonyl-5′-aminomethyl-spiro[piperidine-4,3′-(2H)-benzo[b]furan]]	5800
CN(C)C(=N)c1ccc2c(c1)C1(CCN(C(=O)c3ccc(C#Cc4ccccc4)o3)CC1)CO2 [Cpd 313, 1-(5-phenylethynyl-furan-2-yl)carbonyl-5′-[dimethylamino(imino)methyl]-spiro[piperidine-4,3′-(2H)-benzo[b]furan]]	140
CSc1sc(C(=O)N2CCC3(CC2)COc2ccc(CN)cc23)c2c1C=CCC2 [Cpd 219, 1-(3-methylthio-7-hydro-6H-benzo[c]thien-1-yl)carbonyl-5′-aminomethyl-spiro[piperidine-4,3′-(2H)-benzo[b]furan]]	2.9
NCc1ccc2c(c1)C1(CCN(C(=O)/C=C/c3ccccc3Br)CC1)CO2 [Cpd 199, (E)-1-(2-bromo-phenylethenyl)carbonyl-5′-aminomethyl-spiro[piperidine-4,3′-(2H)-benzo[b]furan]]	180
CSc1cccc(C(=O)N2CCC3(CC2)COc2ccc(CN)cc23)c1 [Cpd 57, 1-(3-methylthio-phenyl)carbonyl-5′-aminomethyl-spiro[piperidine-4,3′-(2H)-benzo[b]furan]]	180
NCc1ccc2c(c1)C1(CCN(C(=O)/C=C\c3ccco3)CC1)CO2 [Cpd 242, (Z)-1-(furan-2-ylethenyl)carbonyl-5′-aminomethyl-spiro[piperidine-4,3′-(2H)-benzo[b]furan]]	650
NCc1ccc2c(c1)C1(CCN(C(=O)c3ccc(CCl)cc3)CC1)CO2 [Cpd 69, 1-(4-chloromethyl-phenyl)carbonyl-5′-aminomethyl-spiro[piperidine-4,3′-(2H)-benzo[b]furan]]	1600
CC(C)Sc1sc(C(=O)N2CCC3(CC2)COc2ccc(CN)cc23)c2c1C(=O)CC(C)(C)C2 [Cpd 225, 1-(3-isopropylthio-4-oxo-6,6-dimethyl-6,7-dihydro-5H-benzo[c]thien-1-yl)carbonyl-5′-aminomethyl-spiro[piperidine-4,3′-(2H)-benzo[b]furan]]	47
Cc1c(C#N)sc2sc(C(=O)N3CCC4(CC3)COc3ccc(CN)cc34)c(C)c12 [Cpd 226, 1-(3,4-dimethyl-5-cyano-thieno[2,3-b]thien-2-yl)carbonyl-5′-aminomethyl-spiro[piperidine-4,3′-(2H)-benzo[b]furan]]	3200
Cc1ccsc1/C=C/C(=O)N1CCC2(CC1)COc1ccc(CN)cc12 [Cpd 356, (E)-1-(3-methyl-thien-2-ylethenyl)carbonyl-5′-aminomethyl-spiro[piperidine-4,3′-(2H)-benzo[b]furan]]	180
NCc1ccc2c(c1)C1(CCN(C(=O)c3cccc4c3Cc3ccccc3-4)CC1)CO2 [Cpd 269, 1-fluoren-1-ylcarbonyl-5′-aminomethyl-spiro[piperidine-4,3′-(2H)-benzo[b]furan]]	1000
COC(=O)CN1CC2(CCN(C(=O)c3ccc(C#Cc4ccccc4)o3)CC2)c2cc(CN)ccc21 [Cpd 343, 1-(5-phenylethynyl-furan-2-yl)carbonyl-1′-[(methoxycarbonyl)methyl]-5′-aminomethyl-spiro[piperidine-4,3′-(2H)-indole]]	23
NCc1ccc2c(c1)C1(CCN(C(=O)C3CCCCC3)CC1)CO2 [Cpd 37, 1-cyclohexylcarbonyl-5′-aminomethyl-spiro[piperidine-4,3′-(2H)-benzo[b]furan]]	730
Cc1c(C(=O)N2CCC3(CC2)COc2ccc(CN)cc23)oc2c1C(=O)CC(c1ccccc1)C2 (stereo not shown) [Cpd 222, 1-(3-methyl-4-oxo-6-phenyl-5,6,7-trihydro-4H-benzo[b]furan-2-yl)carbonyl-5′-aminomethyl-spiro[piperidine-4,3′-(2H)-benzo[b]furan]]	260
NCc1ccc2c(c1)C1(CCN(S(=O)(=O)c3ccc(Cl)c(Cl)c3)CC1)CO2 [Cpd 280, 1-(3,4-dichlorophenyl)sulfonyl-5′-aminomethyl-spiro[piperidine-4,3′-(2H)-benzo[b]furan]]	220

From patent US8158792B2, “Spiropiperidines for use as tryptase inhibitors” (Janssen Pharmaceutica N.V., priority 2007, dated 2012)
